In patent publication US20190161516A1, “PROTEASOME INHIBITORS” (University of Kentucky Research Foundation, priority 2017, published 2019):
Read-outs that look alike come from different tables or passages of the source.

Key:
LMP2/β1i = LMP2/β1i (Homo sapiens, UniProt P28065+P40306); test: Proteasome inhibitory activity, subunit-specific cell lysate IC50, LMP2; format: biochemical; design: Subunit-Specific Cell lysate IC50 (μM); endogenous in cells
[1] = system: Chymotrypsin-like activity (β5/β5i); test: Proteasome inhibitory activity, subunit-specific cell lysate IC50, chymotrypsin-like activity; format: biochemical
BV-2 cells = test: LPS-induced IL-6 production in BV-2 microglial cell line; format: cell-based; details: FIG. 14
Excerpt: To test this, we used BV-2 cell line, a microglial cell line, known to upregulate cytokines in response to LPS treatment. […] We suspect these contradictory results are due to cell type-specific role of LMP2, indicating a distinct role of LMP2 in microglia inflammatory response.

[2] = system: human peripheral blood mononuclear cells (PBMCs); details: previous studies; cited from earlier work
[3] = read-out: Subunit-Specific Cell lysate IC50, LMP2 (β1i)
[4] = Subunit-Specific Cell lysate IC50, LMP2 (β1i)

| IC50 (LMP2/β1i; [3]) [nM] | IC50 [1] [nM] | SMILES | IC50 (LMP2/β1i; [4]) [nM] | IL-6 production induced by LPS (BV-2 cells) | LPS-induced cytokine production including IL-6 [2] |
| --- | --- | --- | --- | --- | --- |
| 1200 | > 10000 | CC(C)C[C@H](NC(=O)[C@H](Cc1ccccc1)NC(=O)[C@@H]1CCCN1C(=O)CN1CCOCC1)C(=O)[C@@]1(C)CO1 [Analogue 1] | – | – | – |
| 1000 | > 10000 | CC(C)C[C@H](NC(=O)[C@H](Cc1ccccc1)NC(=O)[C@@H]1CCCN1C(=O)c1cccc(O)n1)C(=O)[C@@]1(C)CO1 [Analogue 2] | – | – | – |
| 1000 | > 10000 | CC(C)C[C@H](NC(=O)[C@H](Cc1ccccc1)NC(=O)[C@@H]1CCCN1C(=O)CN1CCOCC1=O)C(=O)[C@@]1(C)CO1 [Analogue 3] | – | – | – |
| 650 | > 10000 | CC(=O)NCC(=O)N1CCC[C@H]1C(=O)N[C@@H](Cc1ccc(-c2ccccc2)cc1)C(=O)N[C@@H](CC(C)C)C(=O)[C@@]1(CO)CO1 [Analogue 4] | – | – | – |
| 2200 | 7000 | CC(=O)NCC(=O)N1CCC[C@H]1C(=O)N[C@@H](Cc1ccc2ccccc2c1)C(=O)N[C@@H](CC(C)C)C(=O)[C@@]1(CO)CO1 [Analogue 6] | – | – | – |
| 30 | > 10000 | CC(=O)NCC(=O)N1CCC[C@H]1C(=O)N[C@@H](Cc1ccc2ccccc2c1)C(=O)N[C@@H](CC(C)C)C(=O)[C@@]1(C)CO1 [Analogue 7] | – | – | – |
| 20 | 5000 | CC(=O)NCC(=O)N1CCC[C@H]1C(=O)N[C@@H](Cc1ccc(-c2ccccc2)cc1)C(=O)N[C@@H](CC(C)C)C(=O)[C@@]1(C)CO1 [Analogue 8] | – | – | – |
| 130 | > 10000 | CCc1ccc(C[C@H](NC(=O)[C@@H]2CCCN2C(=O)CNC(C)=O)C(=O)N[C@@H](CC(C)C)C(=O)[C@@]2(C)CO2)cc1 [Analogue 9] | – | – | – |
| 30 | > 10000 | CC(=O)NCC(=O)N1CCC[C@H]1C(=O)N[C@@H](Cc1cccc2ccccc12)C(=O)N[C@@H](CC(C)C)C(=O)[C@@]1(C)CO1 [Analogue 10] | – | – | – |
| 60 | > 10000 | CC(=O)NCC(=O)N1CCC[C@H]1C(=O)N[C@@H](Cc1ccccc1)C(=O)N[C@@H](CC(C)C)C(=O)[C@@]1(CO)CO1 [Analogue 11] | – | – | – |
| 70 | > 10000 | CC(=O)NCC(=O)N1CC(F)(F)C[C@H]1C(=O)N[C@@H](Cc1ccccc1)C(=O)N[C@@H](CC(C)C)C(=O)[C@@]1(C)CO1 [Analogue 12] | – | – | – |
| 100 | > 10000 | Cc1ncc(C(=O)NCC(=O)N2CCC[C@H]2C(=O)N[C@@H](Cc2ccccc2)C(=O)N[C@@H](CC(C)C)C(=O)[C@@]2(C)CO2)s1 [Analogue 15] | – | – | – |
| 140 | > 10000 | CC(C)C[C@H](NC(=O)[C@H](Cc1ccccc1)NC(=O)[C@@H]1CCCN1C(=O)CNC(=O)c1cccc(O)n1)C(=O)[C@@]1(C)CO1 [Analogue 17] | – | – | – |
| 100 | – | CC(C)C[C@H](NC(=O)[C@H](CCc1ccccc1)NC(=O)[C@@H]1CCCN1C(=O)CNC(=O)c1cnccn1)C(=O)[C@@]1(C)CO1 [Analogue 20] | – | – | – |
| 90 | 5000 | CC(C)C[C@H](NC(=O)[C@H](Cc1ccc(-c2ccccc2)cc1)NC(=O)[C@@H]1CCCN1C(=O)CNC(=O)c1cnccn1)C(=O)[C@@]1(C)CO1 [Analogue 22] | – | – | – |
| 60 | – | CC(C)C[C@H](NC(=O)[C@H](Cc1ccc2ccccc2c1)NC(=O)[C@@H]1CCCN1C(=O)CNC(=O)c1cnccn1)C(=O)[C@@]1(C)CO1 [Analogue 23] | – | – | – |
| 130 | – | Cc1ncc(C(=O)NCC(=O)N2CCC[C@H]2C(=O)N[C@@H](Cc2ccc(-c3ccccc3)cc2)C(=O)N[C@@H](CC(C)C)C(=O)[C@@]2(C)CO2)s1 [Analogue 24] | – | – | – |
| 130 | > 10000 | CC(C)C[C@H](NC(=O)[C@H](Cc1ccccc1)NC(=O)[C@@H]1CCCN1C(=O)CNC(=O)C(F)(F)F)C(=O)[C@@]1(C)CO1 [Analogue 25] | – | – | – |
| 90 | – | Cc1ncc(C(=O)NCC(=O)N2CCC[C@H]2C(=O)N[C@@H](Cc2ccc3ccccc3c2)C(=O)N[C@@H](CC(C)C)C(=O)[C@@]2(C)CO2)s1 [Analogue 26] | – | – | – |
| 110 | > 10000 | CC(C)C[C@H](NC(=O)[C@H](Cc1ccccc1)NC(=O)[C@@H]1CCCN1C(=O)CNC(=O)S(C)(=O)=O)C(=O)[C@@]1(C)CO1 [Analogue 27] | – | – | – |
| 90 | > 10000 | CC(=O)NCC(=O)N1CCC[C@H]1C(=O)N[C@@H](Cc1ccc(NC(=O)CN2CCOCC2)cc1)C(=O)N[C@@H](CC(C)C)C(=O)[C@@]1(C)CO1 [Analogue 29] | – | – | – |
| 120 | – | CC(=O)NCC(=O)N1CCC[C@H]1C(=O)N[C@@H](Cc1ccncc1)C(=O)N[C@@H](CC(C)C)C(=O)[C@@]1(C)CO1 [Analogue 30] | – | – | – |
| – | – | COc1ccc(C[C@H](NC(=O)[C@H](C)NC(=O)CN2CCOCC2)C(=O)N[C@@H](Cc2ccccc2)C(=O)[C@@]2(C)CO2)cc1 [ONX-0914] | – | less effective in blocking IL-6 production | almost completely blocked |

| SMILES | IC50 (LMP2/β1i; [3]) [nM] | IC50 [1] [nM] | IC50 (LMP2/β1i; [4]) [nM] | IL-6 production induced by LPS (BV-2 cells) | LPS-induced cytokine production including IL-6 [2] |
| --- | --- | --- | --- | --- | --- |
| CC(=O)NCC(=O)N1CCC[C@H]1C(=O)N[C@@H](Cc1ccc2ccccc2c1)C(=O)N[C@@H](CC(C)C)C(=O)[C@@]1(CO[Si](c2ccccc2)(c2ccccc2)C(C)(C)C)CO1 [Analogue 5] | – | > 10000 | > 10000 | – | – |
| CC(=O)NCC(=O)N1CCC[C@H]1C(=O)N[C@@H](CCc1ccccc1)C(=O)N[C@@H](CC(C)C)C(=O)[C@@]1(C)CO1 [Analogue 13] | 60 | > 10000 | – | – | – |
| CC(=O)NCC(=O)N1CCCCC1C(=O)N[C@@H](Cc1ccccc1)C(=O)N[C@@H](CC(C)C)C(=O)[C@@]1(C)CO1 (stereo partly shown) [Analogue 14] | 120 | 1000 | – | – | – |
| CC(=O)NCC(=O)N1CCC[C@H]1C(=O)N[C@@H](Cc1ccc(NC(=O)c2ccccc2)cc1)C(=O)N[C@@H](CC(C)C)C(=O)[C@@]1(C)CO1 [Analogue 18] | – | 5000 | 70 | – | – |
| Cc1ncc(C(=O)NCC(=O)N2CCC[C@H]2C(=O)N[C@@H](CCc2ccccc2)C(=O)N[C@@H](CC(C)C)C(=O)[C@@]2(C)CO2)s1 [Analogue 19] | 180 | > 10000 | – | – | – |
| Cc1cc(C(=O)NCC(=O)N2CCC[C@H]2C(=O)N[C@@H](CCc2ccccc2)C(=O)N[C@@H](CC(C)C)C(=O)[C@@]2(C)CO2)no1 [Analogue 21] | 130 | > 10000 | – | – | – |
| CC(=O)NCC(=O)N1CCC[C@H]1C(=O)N[C@@H](Cc1ccc(NC(=O)c2cnccn2)cc1)C(=O)N[C@@H](CC(C)C)C(=O)[C@@]1(C)CO1 [Analogue 28] | – | > 10000 | 30 | – | – |
